In patent US8420657B2 (Novartis AG, priority 2008, dated 2013):

Columns and labels:
[1] = system: JAK2-dependent nuclear translocation of STAT5-GFP in U-2 OS osteosarcoma cells; experiment: STAT5 nuclear translocation assay (Cellomics), rhEpo stimulated U-2 OS STAT5-GFP cells; format: cell-based; conditions: Homo sapiens, U2OS; STAT5 translocation pathway
How it was run: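 U-2 OS cells stably expressing STAT5a-GFP and EpoR pre-treated with compound (final 10 μM to 0.003 μM, 0.1% DMSO) for 30 min at 37° C., then stimulated 1 h with 5 U/ml rhEpo. Nuclear-cytoplasmic GFP differential quantified by automated imaging (≥1000 cells/well, Hoechst nuclear mask). IC50 from % translocation normalized to untreated and DMSO-stimulated controls.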

GST-JAK2(808-1132) = molecular target: T1, GST-JAK2(808-1132) (Homo sapiens, UniProt O60674); experiment: JAK2 kinase assay (Caliper mobility shift, LabChip 3000); format: biochemical
T1 construct: GST-JAK2(808-1132); purchased Invitrogen (Carlsbad, USA) #4288
How it was run: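 Eight-point compound series (final 10–0.003 μM) tested on purchased GST-JAK2 kinase domain (808-1132). Peptide FITC-JAK3tide plus ATP reacted 60 min, 30 °C, then quenched with EDTA; turnover from charge-based separation of substrate and product.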

T1 sequence (O60674 808-1132): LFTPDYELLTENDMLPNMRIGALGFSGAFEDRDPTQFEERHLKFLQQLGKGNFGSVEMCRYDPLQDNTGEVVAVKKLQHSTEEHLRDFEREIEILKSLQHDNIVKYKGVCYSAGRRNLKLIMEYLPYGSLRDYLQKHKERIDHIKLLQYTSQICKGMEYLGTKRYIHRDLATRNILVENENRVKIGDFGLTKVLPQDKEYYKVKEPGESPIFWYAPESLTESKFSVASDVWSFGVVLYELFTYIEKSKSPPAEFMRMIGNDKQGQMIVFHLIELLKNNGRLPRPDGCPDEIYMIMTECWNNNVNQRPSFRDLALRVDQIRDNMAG

| SMILES | IC50 [1] | IC50 (GST-JAK2(808-1132)) |
| --- | --- | --- |
| Cc1ccc(Nc2ncc3ccn(-c4cc(F)c(CN5CCOCC5)c(F)c4)c3n2)cc1CN1CCN(C)CC1 [Example 331, [7-(3,5-Difluoro-4-morpholin-4-ylmethyl-phenyl)-7H-pyrrolo[2,3-d]pyrimidin-2-yl]-[4-methyl-3-(4-methyl-piperazin-1-ylmethyl)-phenyl]-amine] | 2.8 nM | ≤ 3 nM |
| COC1CN(Cc2cc(Nc3ncc4ccn(-c5cc(F)c(CN6CCOCC6)c(F)c5)c4n3)ccc2C)C1 [Example 405, [7-(3,5-Difluoro-4-morpholin-4-ylmethyl-phenyl)-7H-pyrrolo[2,3-d]pyrimidin-2-yl]-[3-(3-methoxy-azetidin-1-ylmethyl)-4-methyl-phenyl]-amine] | 3.2 nM | ≤ 3 nM |
| Fc1cc(-n2ccc3cnc(Nc4ccnc(CN5CCNC(C(F)(F)F)C5)c4)nc32)cc(F)c1CN1CCOCC1 (racemic) [Example 408, [7-(3,5-Difluoro-4-morpholin-4-ylmethyl-phenyl)-7H-pyrrolo[2,3-d]pyrimidin-2-yl]-[2-(3-trifluoromethyl-piperazin-1-ylmethyl)-pyridin-4-yl]-amine] | 9.2 nM | ≤ 3 nM |
| CN1CCN(c2ccc(Nc3ncc4ccn(-c5cc(F)c(CN6CCOCC6)c(F)c5)c4n3)cn2)C(=O)C1 [Example 478, 1-{5-[7-(3,5-Difluoro-4-morpholin-4-ylmethyl-phenyl)-7H-pyrrolo[2,3-d]pyrimidin-2-ylamino]-pyridin-2-yl}-4-methyl-piperazin-2-one] | 51 nM | 5.5 nM |
| CN1CCN(C(=O)c2ccc(Nc3ncc4ccn(-c5cc(F)c(CN6CCOCC6)c(F)c5)c4n3)cn2)CC1 [Example 466, {5-[7-(3,5-Difluoro-4-morpholin-4-ylmethyl-phenyl)-7H-pyrrolo[2,3-d]pyrimidin-2-ylamino]-pyridin-2-yl}-(4-methyl-piperazin-1-yl)-methanone] | 56 nM | 7.9 nM |
| CCN1CCOC[C@@H]1c1ccc(Nc2ncc3ccn(-c4cc(F)c(CN5CCOCC5)c(F)c4)c3n2)cc1 [Example 508, [7-(3,5-Difluoro-4-morpholin-4-ylmethyl-phenyl)-7H-pyrrolo[2,3-d]pyrimidin-2-yl]-[4-((S)-4-ethyl-morpholin-3-yl)-phenyl]-amine] | 14.8 nM | 4.1 nM |
| Cc1ccc(Nc2ncc3ccn(-c4cc(F)c(CN5CCOCC5)c(F)c4)c3n2)cc1CN1CCC(N(C)C)C1 (racemic) [Example 434, [7-(3,5-Difluoro-4-morpholin-4-ylmethyl-phenyl)-7H-pyrrolo[2,3-d]pyrimidin-2-yl]-[3-(3-dimethylamino-pyrrolidin-1-ylmethyl)-4-methyl-phenyl]-amine] | 31.5 nM | ≤ 3 nM |
| C[C@@H]1CN(c2ncc(Nc3ncc4ccn(-c5cc(F)c(CN6CCOCC6)c(F)c5)c4n3)cc2C(F)(F)F)C[C@H](C)N1 [Example 496, [7-(3,5-Difluoro-4-morpholin-4-ylmethyl-phenyl)-7H-pyrrolo[2,3-d]pyrimidin-2-yl]-[6-(cis-3,5-dimethyl-piperazin-1-yl)-5-trifluoromethyl-pyridin-3-yl]-amine] | 97.2 nM | ≤ 3 nM |
| C[C@@H]1CN(c2ncc(Nc3ncc4ccn(-c5cc(F)c(CN6CCOCC6)c(F)c5)c4n3)cc2C#N)C[C@H](C)N1 [Example 490, 5-[7-(3,5-Difluoro-4-morpholin-4-ylmethyl-phenyl)-7H-pyrrolo[2,3-d]pyrimidin-2-ylamino]-2-(cis-3,5-dimethyl-piperazin-1-yl)-nicotinonitrile] | 14 nM | 3.4 nM |
| CN1CCN(Cc2cc(Nc3ncc4ccn(-c5cc(F)c(CN6CCOCC6)c(F)c5)c4n3)ccc2Cl)CC1 [Example 494, [4-Chloro-3-(4-methyl-piperazin-1-yl methyl)-phenyl]-[7-(3,5-difluoro-4-morpholin-4-ylmethyl-phenyl)-7H-pyrrolo[2,3-d]pyrimidin-2-yl]-amine] | 394 nM | ≤ 3 nM |
| C[C@@H]1CN(Cc2ccc(Nc3ncc4ccn(-c5ccc6c(c5)CCC(=O)N6)c4n3)cc2)C[C@H](C)N1 [Example 468, 6-{2-[4-(cis-3,5-Dimethyl-piperazin-1-ylmethyl)-phenylamino]-pyrrolo[2,3-d]pyrimidin-7-yl}-3,4-dihydro-1H-quinolin-2-one] | 14 nM | ≤ 3 nM |
| Fc1cc(-n2ccc3cnc(Nc4cnc(N5CCNCC5)c(Cl)c4)nc32)cc(F)c1CN1CCOCC1 [Example 502, (5-Chloro-6-piperazin-1-yl-pyridin-3-yl)-[7-(3,5-difluoro-4-morpholin-4-ylmethyl-phenyl)-7H-pyrrolo[2,3-d]pyrimidin-2-yl]-amine] | 17 nM | ≤ 3 nM |
| O=C1CNCCN1Cc1cc(Nc2ncc3ccn(-c4cc(F)c(CN5CCOCC5)c(F)c4)c3n2)ccn1 [Example 409, 1-{4-[7-(3,5-Difluoro-4-morpholin-4-ylmethyl-phenyl)-7H-pyrrolo[2,3-d]pyrimidin-2-ylamino]-pyridin-2-ylmethyl}-piperazin-2-one] | 81.6 nM | ≤ 3 nM |
| Cc1ccc(Nc2ncc3ccn(-c4cc(F)c(CN5CCOCC5)c(F)c4)c3n2)cc1CN1CCNC(C(F)(F)F)C1 (racemic) [Example 404, [7-(3,5-Difluoro-4-morpholin-4-ylmethyl-phenyl)-7H-pyrrolo[2,3-d]pyrimidin-2-yl]-[4-methyl-3-(3-trifluoromethyl-piperazin-1-ylmethyl)-phenyl]-amine] | 141 nM | 5.6 nM |
| Cc1ccc(Nc2ncc3ccn(-c4cc(F)c(CN5CCS(=O)(=O)CC5)c(F)c4)c3n2)cc1CN1CCNCC1 [Example 428, {7-[4-(1,1-Dioxido-thiomorpholin-4-ylmethyl)-3,5-difluoro-phenyl]-7H-pyrrolo[2,3-d]pyrimidin-2-yl}-(4-methyl-3-piperazin-1-ylmethyl-phenyl)-amine] | 10.7 nM | ≤ 3 nM |
| O=C(c1ccc(-n2ccc3cnc(Nc4ccc(CC5CCNCC5)cc4)nc32)cc1F)N1CCOCC1 [Example 381, {2-Fluoro-4-[2-(4-piperidin-4-ylmethyl-phenylamino)-pyrrolo[2,3-d]pyrimidin-7-yl]-phenyl}-morpholin-4-yl-methanone] | 43 nM | ≤ 3 nM |
| Fc1cc(-n2ccc3cnc(Nc4ccc(N5CCNC(C(F)(F)F)C5)nc4)nc32)cc(F)c1CN1CCOCC1 (racemic) [Example 469, [7-(3,5-Difluoro-4-morpholin-4-ylmethyl-phenyl)-7H-pyrrolo[2,3-d]pyrimidin-2-yl]-[6-(3-trifluoromethyl-piperazin-1-yl)-pyridin-3-yl]-amine] | 25 nM | ≤ 3 nM |
| O=C(c1cccc(Nc2ncc3ccn(-c4cc(F)c(CN5CCOCC5)c(F)c4)c3n2)c1)N1CCN(C2CC2)CC1 [Example 459, (4-Cyclopropyl-piperazin-1-yl)-{3-[7-(3,5-difluoro-4-morpholin-4-ylmethyl-phenyl)-7H-pyrrolo[2,3-d]pyrimidin-2-ylamino]-phenyl}-methanone] | 104 nM | 5.1 nM |
| C[C@@H]1CN[C@@H](C)CN1c1ccc(Nc2ncc3ccn(-c4ccc(S(=O)(=O)NC(C)(C)C)cc4)c3n2)cn1 (racemic) [Example 356, N-tert-Butyl-4-{2-[6-((2R,5S)-2,5-dimethyl-piperazin-1-yl)-pyridin-3-ylamino]-pyrrolo[2,3-d]pyrimidin-7-yl}-benzenesulfonamide] | 5.9 nM | 3.2 nM |
| Cc1ccc(Nc2ncc3ccn(-c4ccc(C(=O)N5CCS(=O)(=O)CC5)c(F)c4)c3n2)cc1CN1CCNC(C(F)(F)F)C1 (racemic) [Example 403] | 22.5 nM | ≤ 3 nM |
| CN1CCN(Cc2cc(Nc3ncc4ccn(-c5cc(F)c(CN6CCOCC6)c(F)c5)c4n3)ccn2)CC1 [Example 384, [7-(3,5-Difluoro-4-morpholin-4-ylmethyl-phenyl)-7H-pyrrolo[2,3-d]pyrimidin-2-yl]-[2-(4-methyl-piperazin-1-ylmethyl)-pyridin-4-yl]-amine] | 12 nM | ≤ 3 nM |
| Fc1cc(-n2ccc3cnc(Nc4ccc5c(c4)C4CCC5N4)nc32)cc(F)c1CN1CCOCC1 (centres unmarked) [Example 424, [7-(3,5-Difluoro-4-morpholin-4-ylmethyl-phenyl)-7H-pyrrolo[2,3-d]pyrimidin-2-yl]-(1,2,3 4-tetrahydro-1,4-epiazano-naphthalen-6-yl)-amine] | 9 nM | ≤ 3 nM |
| Cc1cc(Nc2ncc3ccn(-c4cc(F)c(CN5CCOCC5)c(F)c4)c3n2)cc(C)c1OCCN1CCOCC1 [Example 433, [7-(3,5-Difluoro-4-morpholin-4-ylmethyl-phenyl)-7H-pyrrolo[2,3-d]pyrimidin-2-yl]-[3,5-dimethyl-4-(2-morpholin-4-yl-ethoxy)-phenyl]-amine] | 6.3 nM | ≤ 3 nM |
| CN(C)CCN1CCN(Cc2cc(Nc3ncc4ccn(-c5cc(F)c(CN6CCOCC6)c(F)c5)c4n3)ccn2)CC1 [Example 396, [7-(3,5-Difluoro-4-morpholin-4-ylmethyl-phenyl)-7H-pyrrolo[2,3-d]pyrimidin-2-yl]-{2-[4-(2-dimethylamino-ethyl)-piperazin-1-ylmethyl]-pyridin-4-yl}-amine] | 147 nM | ≤ 3 nM |
| OC1CN(Cc2cc(Nc3ncc4ccn(-c5cc(F)c(CN6CCOCC6)c(F)c5)c4n3)ccc2Cl)C1 [Example 400, 1-{2-Chloro-5-[7-(3,5-difluoro-4-morpholin-4-ylmethyl-phenyl)-7H-pyrrolo[2,3-d]pyrimidin-2-ylamino]-benzyl}-azetidin-3-ol] | 1.7 nM | 7 nM |
